The text below walks through data of paper PMC11492426, “Design, synthesis, and biological evaluation of novel quinoline-based EGFR/HER-2 dual-target inhibitors as potential anti-tumor agents” (RSC Advances, 2024).

SMILES strings stand for the structures.

Data set [1] concerns Panc-1 pancreatic cancer cell line. As to the kind of experiment: Antiproliferative assay, Panc-1. In kind it is cell-based. The note with it: Homo sapiens; Panc-1 pancreatic cancer cells; read-out: Antiproliferative activity IC50 ± SEM, Panc-1.
The test system of data set [2] is Bax. As to the kind of experiment: Bax activation assay in MCF-7 cells. In kind it is cell-based, human. Particulars: for Bax Conc.: treated at IC50 values; for Bax Fold change: versus untreated control. On the procedure:
This lysate was diluted in Standard Diluent Buffer over the range of the assay and measured for human active caspase-8 content. (Cells are Plated in a density of 1.2 – 1.8 × 10,000 cells/well in a volume of 100µl complete growth medium + 100 ul of the tested compound per well in a 96-well plate for 24 hours before the enzyme assay for […].). […]
4.2.7. Bax activation assay
Bring all reagents, except the human Bax-α Standard, to room temperature for at least 30 minutes prior to opening. The human Bax-α Standard solution should not be left at room temperature for more than 10 minutes. All standards, controls and samples should be run in duplicate. Refer to the Assay Layout Sheet to determine the number of wells to be used and put any remaining wells with the desiccant back into the pouch and seal the ziploc. Store unused wells at 4 °C. Pipet 100 μL of Assay Buffer into the S0 (0 pg/mL standard) wells. Pipet 100 μL of Standards #1 through #6 into the appropriate wells. Pipet 100 μL of the Samples into the appropriate wells. Tap the plate gently to mix the contents. Seal the plate and incubate at room temperature on a plate shaker for 1 hour at ~500 rpm. Empty the contents of the wells and wash by adding 400 μL of wash solution to every well.
Repeat the wash 4 more times for a total of 5 washes. After the final wash, empty or aspirate the wells and firmly tap the plate on a lint free paper towel to remove any remaining wash buffer. Pipet 100 μL of yellow Antibody into each well, except the Blank. Seal the plate and incubate at room temperature on a plate shaker for 1 hour at ~500 rpm. Empty the contents of the wells and wash by adding 400 μL of wash solution to every well. Repeat the wash 4 more times for a total of 5 washes.
After the final wash, empty or aspirate the wells and firmly tap the plate on a lint free paper towel to remove any remaining wash buffer. Add 100 μL of blue Conjugate to each well, except the Blank.
Seal the plate and incubate at room temperature on a plate shaker for 30 minutes at ~500 rpm. Empty the contents of the wells and wash by adding 400 μL of wash solution to every well. Repeat the wash 4 more times for a total of 5 washes. After the final wash, empty or aspirate the wells and firmly tap […]
the plate on a lint free paper towel to remove any remaining wash buffer. Pipet 100 μL of Substrate Solution into each well. Incubate for 30 minutes at room temperature on a plate shaker at ~500 rpm.
Pipet 100 μL Stop Solution to each well. Blank the plate reader against the Blank wells, read the optical density at 450 nm. Calculate the average net Optical Density (OD) bound for each standard and sample by subtracting the average Blank OD from the average OD for each standard and sample.
Using linear graph paper, plot the Average Net OD for each standard versus Bax concentration in each standard. Approximate a straight line through the points. The concentration of Bax in the unknowns can be determined by interpolation. […]
Remove plate cover and empty the wells. […]
Incubate the microwell strips at room temperature (18° to 25°C) for about 15 minutes, if

Data set [3] deals with Caspase-8. As to the kind of experiment: Caspase-8 activation assay in MCF-7 cells. The class given is cell-based, human. Particulars: for Caspase-8 Conc.: treated at IC50 concentration; for Caspase-8 Fold change: versus untreated control.

Consider `O=c1[nH]c2ccccc2c(O)c1/C=N/c1nc(-c2ccncc2)n[nH]1` [Compound 3e, (E)-4-hydroxy-3-(((3-(pyridin-4-yl)-1H-1,2,4-triazol-5-yl)imino)methyl)quinolin-2(1H)-one], for which the melting point (in general, the temperature, or range, at which the solid turns liquid) lay in the range of 327 to 329 °C. The IC50 (usually the concentration that gives 50% inhibition) in data set [1] turned out to be 34 ± 3 nM. Further, in data set [2], the “Bax Conc.” value was determined as 316 ± 3 pg/mL and the “Bax Fold change” value worked out at 35. Further, in data set [3], the “Caspase-8 Conc.” value worked out at 1.65 ± 0.20 ng/mL and the “Caspase-8 Fold change” value was found to be 19.
`O=c1[nH]c2ccccc2c(O)c1C=Nc1ccc(NS(=O)(=O)c2ncccn2)cc1` [Compound 5a, N-(4-(((4-hydroxy-2-oxo-1,2-dihydroquinolin-3-yl)methylene)amino)phenyl) pyrimidine-2-sulfonamide]: the 50% inhibitory concentration (IC50) in data set [1] came out at 26 ± 2 nM. In data set [2], the “Bax Conc.” value was found to be 350 ± 3 pg/mL and the “Bax Fold change” value turned out to be 39. Moreover, in data set [3], the “Caspase-8 Conc.” value worked out at 1.70 ± 0.15 ng/mL and the “Caspase-8 Fold change” value is on record as 21.
